Literature values, collected in publication PMC2918392 (Journal of medicinal chemistry, 2010).

Experiments:
[1] = tested on: µ-opioid receptor
[2] = tested on: µ opioid receptors (guinea pig ileum); settings: read-out: Functional Bioactivity GPI (IC50), ± S.E.M.
[3] = tested on: µ-opioid receptor; settings: see also ref 1

Tyr-Pro-Trp-Phe-NH2 [EM-1]
affinity and selectivity of activation of µ-opioid receptors, in words [1]: high affinity and selectivity

Tyr-Pro-Phe-Phe-OH
µ-opioid receptor agonist activity, in words ([1]; C-terminal free acid): completely devoid of µ-opioid receptor agonist activity

Tyr-Pro-Phe-(2S,3S)-β-MePhe-NH2
activity among EM analogues containing β-MePhe stereoisomers, in words [1]: highest activity

Tyr-Pro-Phe-Phe-NH2 [EM-2]
IC50 [2]: 15 ± 2 nM | µ-opioid receptor selectivity, in words [3]: c Data from reference 16. Binding affinity based on competition against [^3H]naloxone in rat brain membranes. Data were not presented on the affinity of EM2 at the δ-opioid receptor in that preparation, as EM was shown to be highly selective for µ-opioid receptors (see also reference 1). | affinity and selectivity of activation of µ-opioid receptors, in words [1]: high affinity and selectivity
